For data set [1] the following is noted: CD thermal denaturation of peptide alone, 222 nm. The protocol: The LZ domain of HW1 has four point mutations from its parent sequence, FosW, which is known to homodimerize.[24]
Protein/DNA samples were suspended in 20 mM potassium phosphate, 150 mM potassium fluoride, and 2 mM TCEP (pH 7.4). cJun was added to DNA before addition of antagonist peptide, and these samples were equilibrated for 30 min before measurement.

Data set [2] can be described thus: Peptide fraction helicity by CD at 222 nm, peptide-only samples. It counts as physicochemical. The following applies: CD signal at 222 nm of peptide-only samples; pH 7.4 phosphate/KF/TCEP buffer; duplicate experiments. In outline:
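Fraction helicity of each peptide alone was derived from the CD signal at 222 nm. Separately, thermal denaturation of heterodimers with a 60-residue cJun bZIP construct was used to obtain Tm.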

The next data set concerns the target T1, cJun (Homo sapiens, UniProt P05412).
T1 construct: The same 60 amino acid cJun construct, encompassing the entire bZIP domain, was used for all experiments
In words: CD thermal denaturation of peptide-cJun heterodimers (Tm). Particulars: CD ellipticity at 222 nm, 1-90 °C; peptide (5 μM)/cJun (5 μM); 20 mM potassium phosphate, 150 mM potassium fluoride, 2 mM TCEP pH 7.4; two-state fit; duplicate experiments, ± one SD. It counts as binding. An outline of the steps: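 Peptide/cJun heterodimers (each 5 μM, 60-residue cJun bZIP construct) melted while CD was monitored to give Tm. For antagonism, peptides titrated into pre-incubated cJun (20 μM) with TRE DNA (5 μM); shift of a DNA-specific CD peak toward free TRE gave fraction bound, Hill fit gave IC50; triplicates.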

Experimental findings from publication PMC9582194, “The effect of helix-inducing constraints and downsizing upon a transcription block survival-derived functional cJun antagonist” (Cell Reports. Physical Science, 2022) are described below.

T1 sequence (P05412 252-315 limits assumed): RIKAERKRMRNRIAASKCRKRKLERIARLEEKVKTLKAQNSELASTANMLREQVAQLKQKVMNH

For “Ac-LVVEEDVLEEEIEQLEERNYALRKEIEDLQKQLEKL-NH2 [HW5]”, in data set [1], the “Tm of peptide alone” value worked out at 41 °C. Besides, in data set [2], the “fH, peptide fraction helicity” value turned out to be 46.7%. For the same substance, on cJun, the “Tm of peptide-cJun heterodimer” value was 62.8 ± 1.0 °C.
